Source: PMC5554444 (Cancer prevention research (Philadelphia, Pa.), 2011)
Where “and” joins values, the source holds several entries; their conditions need not be identical. Equal entries are not always repeated. Each block holds one molecule with its values, some of them ahead of it.

Columns and labels:
MCF7 cells [1] = assay: RT2 Profiler PCR array of 84 human cell cycle genes; format: cell-based
MCF7 breast cancer cells = assay: SRB assay, anti-proliferative potential; format: cell-based; conditions: Homo sapiens, MCF7, 72 h, read-out: SRB assay IC50
MCF7 cells [2] = assay: Western blot of p53 and p21 protein; format: cell-based, human; conditions: 1 μM, 8, 24 and 48 h
Caco-2 cell monolayer = Caco-2 cell monolayer permeability; format: in vitro ADME; conditions: Caco-2
[3] = Caco-2 cell monolayer permeability; format: in vitro ADME; conditions: human, Caco-2, pH 7.4
[4] = test system: MNU-induced mammary tumors; assay: MNU-induced mammary tumor growth in Sprague-Dawley rats; format: in vivo, rat; conditions: 10 mg/kg BW/day, six weeks, 10 rats/group, p = 0.1 Mann-Whitney
human RXRα = biological target: T1, human RXRα (Homo sapiens, UniProt P19793); conditions: COS-1 cells, 24 h
T1 sequence (P19793 1-462): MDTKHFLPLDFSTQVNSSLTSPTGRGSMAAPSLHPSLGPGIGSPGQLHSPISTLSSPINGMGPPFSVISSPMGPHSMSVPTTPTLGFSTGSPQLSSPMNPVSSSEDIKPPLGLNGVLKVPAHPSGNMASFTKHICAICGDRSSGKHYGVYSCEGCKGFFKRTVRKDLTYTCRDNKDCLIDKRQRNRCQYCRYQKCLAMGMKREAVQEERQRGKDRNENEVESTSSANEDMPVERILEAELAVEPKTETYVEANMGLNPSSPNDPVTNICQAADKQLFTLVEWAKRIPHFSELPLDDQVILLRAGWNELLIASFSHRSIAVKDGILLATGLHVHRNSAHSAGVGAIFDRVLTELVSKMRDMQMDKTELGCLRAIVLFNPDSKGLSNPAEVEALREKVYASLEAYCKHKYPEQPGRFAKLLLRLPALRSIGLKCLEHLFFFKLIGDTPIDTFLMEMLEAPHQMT

MCF7 cells [5] = assay: Cell cycle distribution by NIM-DAPI flow cytometry; format: cell-based, human; conditions: 2.5 μM
[6] = Absorption and distribution in rats after gavage; format: in vivo, rat; conditions: 40 mg/kg by gavage, 3 h after first treatment, individual rats; listed as AM6-36
HL-60 cells = assay: Expression of cell surface marker CD38 by flow cytometry; format: cell-based, human

Compound: C=C(c1ccc(C(=O)O)cc1)c1cc2c(cc1C)C(C)(C)CCC2(C)C [Bexarotene, reference compound]
Number of genes out of 84 with significantly altered expression (MCF7 cells [1]; 24 h, AM6-36 1 μM, bexarotene 100 μM, P <0.05): 9

Compound: CC[C@@]1(O)C(=O)OCc2c1cc1n(c2=O)Cc2cc3ccccc3nc2-1 [Camptothecin]
IC50 (MCF7 breast cancer cells): 1.41 nM

Papp AP to BL, times slower than propranolol (Caco-2 cell monolayer): 10 fold
Papp A→B at 5 µM [3]: 2.75 ± 0.78 ×10⁻⁶ cm/s
Papp A→B at 10 µM [3]: 5.52 ± 0.29 ×10⁻⁶ cm/s
Papp A→B at 25 µM [3]: 4.45 ± 0.71 ×10⁻⁶ cm/s
Papp B→A at 5 µM [3]: 3.95 ± 0.11 ×10⁻⁶ cm/s
Papp B→A at 10 µM [3]: 3.25 ± 0.71 ×10⁻⁶ cm/s
Papp B→A at 25 µM [3]: 8.26 ± 0.93 ×10⁻⁶ cm/s
Relative luciferase activity induction (human RXRα; 20 μM): 133.2 fold
RXRE assay, fold increase of relative luciferase activity over vehicle (human RXRα; 40 μM): 5.49±0.34 fold
Compound: Cl.Cl.NCCCn1c2c(c3ccc(N)cc3c1=O)C(=O)c1ccccc1-2 [Compound 3, 3-amino-6-(3-aminopropyl)-5,6-dihydro-5,11-dioxo-11H-indeno[1,2-c]isoquinoline dihydrochloride]
p21 protein expression (MCF7 cells [2]): moderate increase at 8 h, and incremental expression was observed at 24 and 48 h
p53 protein level (MCF7 cells [2]): increase of p53 at 8 h, followed by decreases at 24 and 48 h
Growth of MNU-induced mammary tumors [4]: clearly attenuated tumor growth
Cell cycle distribution (MCF7 cells [5]): S phase arrest
Up-regulation of CDKN1A expression (MCF7 cells [1]; DNA microarray analysis): 35 fold
Serum 1-day [6]: 0.84 ± 0.01 μg/ml and 2.14 μM and 0.82 ± 0.004 μg/ml and 2.09 μM

Compound: CC1=C(/C=C/C(C)=C\C=C\C(C)=C\C(=O)O)C(C)(C)CCC1 [Compound 9-cis-RA, 9-cis-Retinoic acid]
FL-1 positive cells (CD38) (HL-60 cells; HL-60 cells, 2 nM): 86.7%
CD38-expressing cell population (FL-1 positive) (HL-60 cells; HL-60 cells, 2000, 200, 20 nM): about 95%
